#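 In this assay, cells in 96-well plates receive the compound at five concentrations for 48 hours. Endpoints are linearly interpolated between the surrounding concentrations. Definition used: TGI = concentration required for complete inhibition of growth.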
# What was measured:
# Assay in all cases: growth of human tumour cells (NCI), 48 h
# [1] = test system: SF-295 CNS
# [2] = test system: 786-0 renal
# [3] = test system: SR leukemia
# [4] = test system: SF-268 CNS
# [5] = test system: OVCAR-3 ovarian
# [6] = test system: KM12 colon
# [7] = test system: MALME-3M melanoma
# [8] = test system: MOLT-4 leukemia
# [9] = test system: UACC-257 melanoma
# [10] = test system: SF-539 CNS
# [11] = test system: MDA-MB-435
# [12] = test system: OVCAR-8 ovarian
# [13] = test system: NCI-H226 lung
# [14] = test system: HT29 colon
# [15] = test system: HOP-62 NSCLC
# [16] = test system: HCT-15 colon
# [17] = test system: HCC-2998 colon
# [18] = test system: RPMI-8226 leukemia
# [19] = test system: MDA-N
# [20] = test system: HS 578T breast
# [21] = test system: CCRF-CEM leukemia
# [22] = test system: LOX IMVI melanoma
# [23] = test system: SNB-75 CNS
# [24] = test system: IGROV1 ovarian
# [25] = test system: T-47D breast
# [26] = test system: OVCAR-4 ovarian
# [27] = test system: RXF 393 renal
# [28] = test system: SK-MEL-5 melanoma
# [29] = test system: HOP-92 NSCLC
# [30] = test system: ACHN renal
# [31] = test system: NCI-H23 lung
# [32] = test system: SW-620 colon
# [33] = test system: MDA-MB-231 breast
# [34] = test system: COLO 205 colon
# [35] = test system: TK-10 renal
# [36] = test system: SNB-19 CNS
# [37] = test system: SK-MEL-28 melanoma
# [38] = test system: NCI-H522 lung
# [39] = test system: PC-3 prostate
# [40] = test system: HCT-116 colon
# [41] = test system: U251 CNS
# [42] = test system: UACC-62 melanoma
# [43] = test system: MCF7 breast
# [44] = test system: DU-145 prostate
# [45] = test system: CAKI-1 renal
# [46] = test system: SK-OV-3 ovarian
# [47] = test system: A549 NSCLC
# [48] = test system: M14 melanoma
# [49] = test system: NCI-H460 lung
# [50] = test system: K-562 leukemia
# [51] = test system: OVCAR-5 ovarian
# [52] = test system: SN12C renal
# [53] = test system: SK-MEL-2 melanoma
# [54] = test system: BT-549 breast
# [55] = test system: EKVX NSCLC
# [56] = test system: A498 renal
# [57] = test system: NCI/ADR-RES ovarian
# [58] = test system: UO-31 renal
# [59] = test system: HL-60(TB) leukemia
smiles,measurement,setting,value
ON[C@@H]1C=C[C@H](n2cnc3c(NC4CC4)ncnc32)C1,TGI,[1],> 100 µM
same,TGI,[2],> 100 µM
same,TGI,[3],> 100 µM
same,TGI,[4],> 100 µM
same,TGI,[5],> 100 µM
same,TGI,[6],> 100 µM
same,TGI,[7],> 100 µM
same,TGI,[8],> 100 µM
same,TGI,[9],> 100 µM
same,TGI,[10],> 100 µM
same,TGI,[11],> 100 µM
same,TGI,[12],> 100 µM
same,TGI,[13],> 100 µM
same,TGI,[14],> 100 µM
same,TGI,[15],> 100 µM
same,TGI,[16],> 100 µM
same,TGI,[17],> 100 µM
same,TGI,[18],> 100 µM
same,TGI,[19],> 100 µM
same,TGI,[20],> 100 µM
same,TGI,[21],> 100 µM
same,TGI,[22],> 100 µM
same,TGI,[23],> 100 µM
same,TGI,[24],> 100 µM
same,TGI,[25],> 100 µM
same,TGI,[26],> 100 µM
same,TGI,[27],> 100 µM
same,TGI,[28],> 100 µM
same,TGI,[29],> 100 µM
same,TGI,[30],> 100 µM
same,TGI,[31],> 100 µM
same,TGI,[32],> 100 µM
same,TGI,[33],> 100 µM
same,TGI,[34],> 100 µM
same,TGI,[35],> 100 µM
same,TGI,[36],> 100 µM
same,TGI,[37],> 100 µM
same,TGI,[38],> 100 µM
same,TGI,[39],> 100 µM
same,TGI,[40],> 100 µM
same,TGI,[41],> 100 µM
same,TGI,[42],> 100 µM
same,TGI,[43],> 100 µM
same,TGI,[44],> 100 µM
same,TGI,[45],> 100 µM
same,TGI,[46],> 100 µM
same,TGI,[47],> 100 µM
same,TGI,[48],> 100 µM
same,TGI,[49],> 100 µM
same,TGI,[50],> 100 µM
same,TGI,[51],> 100 µM
same,TGI,[52],> 100 µM
same,TGI,[53],> 100 µM
same,TGI,[54],> 100 µM
same,TGI,[55],> 100 µM
same,TGI,[56],> 100 µM
same,TGI,[57],> 100 µM
same,TGI,[58],> 100 µM
Cc1ccc2c(n1)C(=O)c1cc(C)c(C)cc1C2=O,TGI,[1],> 100 µM
same,TGI,[2],> 100 µM
same,TGI,[3],85.1 µM
same,TGI,[4],> 100 µM
same,TGI,[5],67.3 µM
same,TGI,[6],> 100 µM
same,TGI,[7],> 100 µM
same,TGI,[8],> 100 µM
same,TGI,[9],> 100 µM
same,TGI,[10],> 100 µM
same,TGI,[11],> 100 µM
same,TGI,[12],> 100 µM
same,TGI,[13],> 100 µM
same,TGI,[14],> 100 µM
same,TGI,[15],> 100 µM
same,TGI,[16],> 100 µM
same,TGI,[59],> 100 µM
same,TGI,[17],> 100 µM
same,TGI,[18],> 100 µM
same,TGI,[19],> 100 µM
same,TGI,[20],> 100 µM
same,TGI,[21],> 100 µM
same,TGI,[22],> 100 µM
same,TGI,[23],73 µM
same,TGI,[24],> 100 µM
same,TGI,[25],> 100 µM
same,TGI,[26],> 100 µM
same,TGI,[27],> 100 µM
same,TGI,[28],79.1 µM
same,TGI,[29],> 100 µM
same,TGI,[30],> 100 µM
same,TGI,[31],> 100 µM
same,TGI,[32],> 100 µM
same,TGI,[33],> 100 µM
same,TGI,[34],> 100 µM
same,TGI,[35],> 100 µM
same,TGI,[36],> 100 µM
same,TGI,[37],> 100 µM
same,TGI,[38],56.8 µM
same,TGI,[39],> 100 µM
same,TGI,[40],> 100 µM
same,TGI,[41],> 100 µM
same,TGI,[42],> 100 µM
same,TGI,[43],> 100 µM
same,TGI,[44],> 100 µM
same,TGI,[45],> 100 µM
same,TGI,[46],> 100 µM
same,TGI,[47],> 100 µM
same,TGI,[48],> 100 µM
same,TGI,[49],> 100 µM
same,TGI,[50],> 100 µM
same,TGI,[51],> 100 µM
same,TGI,[52],> 100 µM
same,TGI,[53],> 100 µM
same,TGI,[54],> 100 µM
same,TGI,[55],> 100 µM
same,TGI,[56],> 100 µM
same,TGI,[57],> 100 µM
same,TGI,[58],> 100 µM
COc1cccc(-c2nc(N)c(C#N)c3c2CCS(=O)(=O)c2ccc(C)cc2-3)c1,TGI,[1],> 100 µM
same,TGI,[2],> 100 µM
same,TGI,[3],5.14 µM
same,TGI,[4],> 100 µM
same,TGI,[5],> 100 µM
same,TGI,[6],> 58.4 µM
same,TGI,[7],> 100 µM
same,TGI,[8],87.1 µM
same,TGI,[9],> 100 µM
same,TGI,[10],> 100 µM
same,TGI,[11],> 100 µM
same,TGI,[12],> 100 µM
same,TGI,[13],> 100 µM
same,TGI,[14],> 49.1 µM
same,TGI,[15],> 100 µM
same,TGI,[16],> 100 µM
same,TGI,[59],37.5 µM
same,TGI,[17],> 100 µM
same,TGI,[19],> 42.6 µM
same,TGI,[20],48 µM
same,TGI,[21],65.1 µM
same,TGI,[22],> 100 µM
same,TGI,[23],54 µM
same,TGI,[24],> 100 µM
same,TGI,[25],> 100 µM
same,TGI,[26],> 100 µM
same,TGI,[28],> 63.3 µM
same,TGI,[29],> 100 µM
same,TGI,[30],> 100 µM
same,TGI,[31],> 100 µM
same,TGI,[32],> 100 µM
same,TGI,[33],> 95.3 µM
same,TGI,[34],> 56.4 µM
same,TGI,[35],> 100 µM
same,TGI,[36],> 100 µM
same,TGI,[37],> 100 µM
same,TGI,[38],> 25.6 µM
same,TGI,[39],> 100 µM
same,TGI,[40],> 100 µM
same,TGI,[41],> 100 µM
same,TGI,[42],> 100 µM
same,TGI,[43],> 100 µM
same,TGI,[44],> 100 µM
same,TGI,[45],> 100 µM
same,TGI,[46],> 100 µM
same,TGI,[47],> 100 µM
same,TGI,[48],> 100 µM
same,TGI,[49],> 100 µM
same,TGI,[50],11 µM
same,TGI,[51],> 100 µM
same,TGI,[52],> 100 µM
same,TGI,[53],> 100 µM
same,TGI,[54],> 100 µM
same,TGI,[55],> 100 µM
same,TGI,[56],> 81.8 µM
same,TGI,[57],> 88 µM
same,TGI,[58],> 100 µM
CCSc1c2cc(OC)ccc2nc2ccc(OC)cc12,TGI,[1],60.4 µM
same,TGI,[2],> 61 µM
same,TGI,[3],> 23.5 µM
same,TGI,[4],> 58.6 µM
same,TGI,[5],> 61.2 µM
same,TGI,[6],> 55.6 µM
same,TGI,[7],28.7 µM
same,TGI,[8],> 34.5 µM
same,TGI,[9],30.4 µM
same,TGI,[10],> 100 µM
same,TGI,[11],> 57.7 µM
same,TGI,[12],> 59.2 µM
same,TGI,[13],40.1 µM
same,TGI,[14],98 µM
same,TGI,[15],53.9 µM
same,TGI,[16],> 100 µM
same,TGI,[59],> 100 µM
same,TGI,[17],25.5 µM
same,TGI,[18],22.2 µM
same,TGI,[19],21.7 µM
same,TGI,[20],> 100 µM
same,TGI,[21],> 42.9 µM
same,TGI,[22],> 76.9 µM
same,TGI,[23],40.3 µM
same,TGI,[24],> 55 µM
same,TGI,[25],> 69.7 µM
same,TGI,[26],> 75.8 µM
same,TGI,[27],63 µM
same,TGI,[28],30.3 µM
same,TGI,[29],> 100 µM
same,TGI,[30],> 87.4 µM
same,TGI,[31],> 86.1 µM
same,TGI,[32],> 100 µM
same,TGI,[33],44.6 µM
same,TGI,[34],> 45.3 µM
same,TGI,[35],> 43.7 µM
same,TGI,[36],> 100 µM
same,TGI,[37],> 59.2 µM
same,TGI,[38],> 48.2 µM
same,TGI,[39],> 56 µM
same,TGI,[40],> 47.8 µM
same,TGI,[41],> 79.2 µM
same,TGI,[42],47.8 µM
same,TGI,[43],> 100 µM
same,TGI,[44],> 72.5 µM
same,TGI,[45],45.4 µM
same,TGI,[46],> 92.5 µM
same,TGI,[47],> 100 µM
same,TGI,[48],33.3 µM
same,TGI,[49],60.4 µM
same,TGI,[50],> 44.1 µM
same,TGI,[51],78.4 µM
same,TGI,[52],50.9 µM
same,TGI,[53],48.7 µM
same,TGI,[54],> 100 µM
same,TGI,[55],> 54 µM
same,TGI,[56],30 µM
same,TGI,[57],> 69.7 µM
same,TGI,[58],> 60.7 µM
